In patent US5639906A, “Fluorescent and NMR sensitive pH indicators” (The United States of America as represented by the …, priority 1994, dated 1997):
Entries after “also recorded” stand apart in the source; their conditions may differ.

Key:
[1] = 19F NMR pH titration of fluorinated indicators; format: physicochemical; conditions: for pK (theoretical titration curve, FIG. 2): 19F shift as a function of pH; for δ1 (limiting 19F shift difference of theoretical curve, FIG. 2) / δ2 (limiting 19F shift difference of theoretical curve, FIG. 2): shift difference between the two fluorine resonances
From the text: The sample also contained Sodium Flouride as an internal chemical shift standard.
The shift for 5F NEAP-1 is referenced to the tetrafluorophthalate ^19 F resonance, while the data for 5F NEAP-2 and 5F NEAP-3 correspond to the shift differences between the two fluorine resonances. The theoretical curves correspond to: δ1 =35.6 ppm, δ2 24.7 ppm, pK=6.85 for 5F NEAP-1; δ1 =10.3 ppm, δ2 =-0.8 ppm, pK=6.6 for 5F NEAP-2; and δ1 =24.1, δ2 =13.4, pK=6.8 for 5F NEAP-3.
The magnitude of this shift, however, is insignificant in comparison to the 11 ppm titration shift of the indicator. In any event, the magnitude of this shift may be determined and corrected. In alternate embodiments, for an indicator such as NEAP-3 which contain a second fluorine to serve as a chemical shift reference both fluorines will experience a similar intracellular shift, making correction unnecessary. There is also exchange broadening of the resonance, which becomes more significant at higher magnetic field strengths. In general, the degree of broadening depends on the dissociation rate constant of the proton from the indicator. This rate is dependent on the particular indicator, on the temperature, and on the composition of the solution in which the indicator is placed. […] If the exchange is sufficiently rapid on the NMR time scale, i.e., the dissociation rate constant of the protonated indicator k-1 >>πΔv/√ 2, where Δv is the chemical shift difference of the resonance under study between the protonated and unprotonated forms of the indicator, then the observed chemical shift can be used to determine the intracellular pH according to the relation: [formula] where pK is the pK of the indicator, δo is the observed chemical shift, and δU and δP are the shifts of the unprotonated and fully protonated forms of the indicator, respectively. Although the above equation is expected to be generally adequate, at very high fields and low temperatures, the exchange might become slow enough to require a correction, as described, for example, in London, J. Magn. Reson. Series A 104, 190-196 (1993).

human erythrocytes [2] = assay: pH measurement in human erythrocytes using 19F-NMR; format: cell-based
Experimental: (§1) FIGS. 3A and 3B show the ^19 F NMR spectra of human erythrocytes loaded with 5F NEAP-1 acetoxymethyl ester suspended in a solution containing 120 mM sodium chloride (NaCl) and 20 mM tris-[N-(2-hydroxyethyl)piperazine-N'-(2-ethanesulfonic acid)] ("tris-HEPES"). Tetrafluorophthalate ("TFPH") is also included as a chemical shift standard. […] The resonance associated with intracellular NEAP is denoted as "INTRA"; the resonance associated with extracellular NEAP is denoted as "EXTRA".
According to the present invention, intracellular pH can be determined using ^19 F NMR spectroscopy of cells containing a compound of Formula I or II. Measurements have been carried out on several physiological systems of interest, including, for example, human erythrocytes and perfused rat heart. The ^19 F NMR shifts of 5F NEAP-1, 5F NEAP-2, or 5F NEAP-3 provide information which is directly interpretable in terms of the cytosolic pH. These measurements can be made using any standard pulsed NMR spectrometer equipped with a fluorine NMR probe. Typically, at least 100 transients are required for the measurements.
III. pH Measurement in Human Erythrocytes Using ^19 F-NMR
(§2) As an illustration of the use of the current invention, the fluorinated indicator 5F NEAP-1 is used to determine the intra- and extracellular pH in a suspension of human erythrocytes. […] Based on the chemical shift difference between the NEAP fluorine resonance and the standard, an intracellular pH value of 7.3 for this preparation is determined. Subsequently, some additional 5F NEAP-1 was added as the free acid. […] It is interesting to note that the extracellular resonance is somewhat broader than the intracellular resonance. […] An extracellular pH value of 7.0 is determined from the shift (this situation is somewhat unusual since in more typical physiological preparations the intracellular pH is lower than the extracellular pH). As noted in the above sections, small errors which result from the intracellular shift displacement of 0.1-0.3 ppm, can be, but have not been accounted for. […]

human erythrocytes [3] = assay: Membrane crossing of extracellular indicator in human erythrocyte suspension (19F NMR); format: in vitro ADME; conditions: free acid added extracellularly
Experimental: as §1, §2

[4] = referenced to the tetrafluorophthalate 19F resonance

Structure (SMILES)	downfield 19F shift of the para-fluorine upon protonation of the nitrogen (titration shift) [1]	pK (theoretical titration curve, FIG. 2) [1]	pK ([1]; as stated in summary)	δ1 (limiting 19F shift of theoretical curve, FIG. 2) [1, 4]	δ2 (limiting 19F shift of theoretical curve, FIG. 2) [1, 4]	extracellular pH determined with indicator (human erythrocytes [2]; free acid added to suspension, TFPH standard)	difference between intra- and extracellular pH giving well resolved NMR resonances (human erythrocytes [2]; intracellular vs extracellular resonance)	intracellular pH determined with indicator (human erythrocytes [2]; loaded 1 hour with acetoxymethyl ester, 120 mM NaCl, 20 mM tris-HEPES, TFPH standard)	crossing of the cell membrane (human erythrocytes [3])	δ1 (limiting 19F shift difference of theoretical curve, FIG. 2) [1]	δ2 (limiting 19F shift difference of theoretical curve, FIG. 2) [1]	pH sensitivity of the fluorine resonances ([1]; FIG. 1)	δ1 (limiting 19F shift difference of theoretical curve, FIG. 2) ([1]; unit not given)	δ2 (limiting 19F shift difference of theoretical curve, FIG. 2) ([1]; unit not given)
CCN(CC(=O)O)c1ccc(F)cc1OCC(=O)O [5F NEAP-1, N-ethyl-2-amino-5-fluorophenol-N,O-diacetic acid]	about 11 ppm	6.85	6.8	35.6 ppm	24.7 ppm	7.0	0.3 pH unit	7.3	will not readily cross the cell membrane; also recorded: does not cross the cellular membrane in appreciable amounts	–	–	–	–	–
CCN(CC(=O)O)c1ccc(F)cc1OCc1ccc(C(=O)O)cc1F [5F NEAP-2, N-Ethyl-2-(2-fluoro-4-carboxybenzyloxy)-4-fluoroaniline-N-acetic acid]	–	6.6	–	–	–	–	–	–	–	10.3 ppm	-0.8 ppm	–	–	–
CCN(CC(=O)O)c1ccc(F)cc1OCCOc1ccc(N(CC(=O)O)CC(=O)O)cc1F [5F NEAP-3, 1-(N-Ethylamino-5-fluorophenoxy)-2-(2-fluoro-4-aminophenoxy)ethane, N,N',N'-triacetic acid]	–	6.8	–	–	–	–	–	–	–	–	–	one of the fluorine resonances is pH sensitive, and the second is almost completely pH insensitive	24.1	13.4
